The experiment relates to Ctenocephalides felis (cat flea). As to the kind of experiment: flea membrane feed test. As to conditions: in vitro membrane feed; adult fleas fed 2 hours on citrated dog blood containing compound, stored overnight, percentage of fleas killed; dose responses repeated n=5. The procedure: The flea membrane feed test is used to measure the biological activities of the compounds claimed. The assay involves in vitro testing against Ctenocephalides felis conducted according to the following general procedure.
Fleas are cultured in vitro using dog blood. 25-30 adult Ctenocephalides felis (cat flea) were collected and placed in a test chamber (50 ml polystyrene tube with fine nylon mesh sealing the end). Citrated dog blood was prepared by adding aqueous sodium citrate solution (10 ml, 20% w/v, 20 g sodium citrate in 100 ml water) to dog blood (250 ml). Test compounds were dissolved in dimethylsulfoxide to give a working stock solution of 4 mg/ml. The stock solution (12.5 μl) was added to citrated dog blood (5 ml) to give an initial test concentration of 10 μg/ml. For testing at 30 μg/ml, working stock solutions of 12 mg/ml were prepared.
Citrated dog blood containing the test compound (5 ml, 10 μg/ml) was placed into a plastic Petri dish lid, which was kept at 37° C. on a heated pad. Parafilm was stretched over the open top to form a tight membrane for the fleas to feed through. The test chamber containing the fleas was placed carefully onto the parafilm membrane and the fleas commenced feeding.
The fleas were allowed to feed for 2 hours and the test chambers were then removed and stored overnight at room temperature.
The fleas were observed and the percentage of fleas killed recorded. Compounds were initially tested at 10 μg/ml, wherefrom relevant dose responses (100, 30, 10, 3, 1, 0.3, 0.1 μg/ml) were conducted and repeated n=5. Data was plotted to generate ED80, ED90 & ED95 values.
Take `CS(=O)(=O)N(CC#N)c1c(C#N)nn(-c2c(Cl)cc(C(F)(F)F)cc2Cl)c1N` [Example 5, N-{5-amino-3-cyano-1-[2,6-dichloro-4-(trifluoromethyl)phenyl]-1H-pyrazol-4-yl}-N-(cyanomethyl)methanesulfonamide]: the “Flea feed ED80 results” value was determined as 1 µg/mL.
With `CN(c1cn(-c2c(Cl)cc(C(F)(F)F)cc2Cl)nc1C#N)S(=O)(=O)C(F)(F)F` [Example 27, N-{3-cyano-1-[2,6-dichloro-4-(trifluoromethyl)phenyl]-1H-pyrazol-4-yl}-1,1,1-trifluoro-N-methyl methanesulfonamide] the figure was 0.1 µg/mL.
With `CS(=O)(=O)N(c1c(C#N)nn(-c2c(Cl)cc(C(F)(F)F)cc2Cl)c1N)S(=O)(=O)c1ccc(F)cc1F` [Example 84, N-{5-amino-3-cyano-1-[2,6-dichloro-4-(trifluoromethyl)phenyl]-1H-pyrazol-4-yl}-2,4-difluoro-N-(methylsulfonyl)benzenesulfonamide] the figure was 3 µg/mL.

Source of the values: patent US7803832B2, “N-(1-arylpyrazol-4L)sulfonamides and their use as parasiticides” (Pfizer Inc., priority 2004, dated 2010).
